Laboratory results from US9566312B2, “Cyclic peptides and use as medicines” (priority 2012, dated 2017).
Where two headings read alike, the source gives them in different places. Starred links: 1 amine or outer side, 2 acyl side, 3 side chain; linkers in the order of their positions; H or OH if unused. Non-standard residues stand in square brackets, D forms with d. Residues, ends and D or L forms follow the SMILES beside them. X42 = C[C@H](CCCOC(=O)N(C)C1CCN(C)CC1)[C@@H](C(=O)[*:2])N(C)[*:1]; X31 = C[C@H](CN1C[C@H](C)OC[C@@H]1C)[C@@H](C(=O)[*:2])N(C)[*:1]; X82 = C[C@H](COCCN1CCOC[C@@H]1C)[C@@H](C(=O)[*:2])N(C)[*:1]; X46 = C[C@H](CN1CC2CCC(C1)O2)[C@@H](C(=O)[*:2])N(C)[*:1]; MeBmt = C/C=C/C[C@@H](C)[C@@H](O)[C@H](NC)C(=O)O; NMeL = CN[C@@H](CC(C)C)C(=O)O; NMeV = CN[C@H](C(=O)O)C(C)C; dNMeA = CN[C@H](C)C(=O)O; Abu = CC[C@H](N)C(=O)O

How the values were obtained:
[1] = tested on: genotype 1b subgenomic HCV replicon in Huh7.5 cells; assay type: cell-based, hepatitis C virus; conditions: read-out: RPLN-1b IC50
Experimental: Method 2: Measuring Inhibitory Effects in a HCV Replicon System
Susceptibility to compounds was analyzed in Huh7.5 cells containing genotype 1a or 1b subgenomic HCV replicons co-expressing a luciferase reporter gene. The original replicons, pFK389lucubineo_3_3′_ET and pH/SG-Neo(L+I), were licensed from ReBlicon GmbH (Germany) and Apath LLC (Saint Louis, Mo.), respectively. The firefly reporter gen was replaced by renilla luciferase reporter gene using standard molecular biology techniques as follows.
Generation of genotype 1b subgenomic replicon: The renilla […]-neomycin phosphotransferase cassette was amplified from pF9 cytomegalovirus (CMV) hRluc-Neo Flexi(R) (Promega) by PCR using Accuprime super mix II (Invitrogen) and a primer set of Ascl hRlucNeo Fwd and NotI hRluc Rev. These two primers have the following sequences and introduce restriction sites for subsequent cloning: Ascl hRlucNeo Fwd, 5 […] 3(Ascl site underlined) (SEQ. ID No. 1), and NotI hRluc Rev, 5[…] 3(NotI site underlined) (SEQ ID No. 2). The amplification product was subcloned into pCR2.1-TOPO (Invitrogen). The resulting plasmid was digested with Ascl and NotI, and the excised fragment (hRluc-Neo) was ligated with the Roche Quick Ligation Kit (Roche) into pFK1389lucubineo_3_3′_ET digested with the same enzymes.
The assay medium for both, luciferase reporter HCV replicon and cytotoxicity assays contains phenol red-free DMEM and lacks G418. […] Luciferase activity of compound treated cells is measured relative to DMSO treated cells after 72 h incubation using Renilla-Glo™ Luciferase Assay (Promega). Cytotoxicity (CC50) is analyzed using Cell Titer-Glo™ (Promega).

[2] = target: organic anion transporting polypeptide 1B1 (OATP1B1) (Homo sapiens (Human), UniProt Q9Y6L6); assay: OATP assay in CHO-OATP1B1 cells;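 further: inhibition of probe substrate uptake into the cells, ten minutes exposure, accumulated substrate read by fluorescence once cells were lysed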
organic anion transporting polypeptide 1B1 (OATP1B1), sequence (Q9Y6L6 whole entry): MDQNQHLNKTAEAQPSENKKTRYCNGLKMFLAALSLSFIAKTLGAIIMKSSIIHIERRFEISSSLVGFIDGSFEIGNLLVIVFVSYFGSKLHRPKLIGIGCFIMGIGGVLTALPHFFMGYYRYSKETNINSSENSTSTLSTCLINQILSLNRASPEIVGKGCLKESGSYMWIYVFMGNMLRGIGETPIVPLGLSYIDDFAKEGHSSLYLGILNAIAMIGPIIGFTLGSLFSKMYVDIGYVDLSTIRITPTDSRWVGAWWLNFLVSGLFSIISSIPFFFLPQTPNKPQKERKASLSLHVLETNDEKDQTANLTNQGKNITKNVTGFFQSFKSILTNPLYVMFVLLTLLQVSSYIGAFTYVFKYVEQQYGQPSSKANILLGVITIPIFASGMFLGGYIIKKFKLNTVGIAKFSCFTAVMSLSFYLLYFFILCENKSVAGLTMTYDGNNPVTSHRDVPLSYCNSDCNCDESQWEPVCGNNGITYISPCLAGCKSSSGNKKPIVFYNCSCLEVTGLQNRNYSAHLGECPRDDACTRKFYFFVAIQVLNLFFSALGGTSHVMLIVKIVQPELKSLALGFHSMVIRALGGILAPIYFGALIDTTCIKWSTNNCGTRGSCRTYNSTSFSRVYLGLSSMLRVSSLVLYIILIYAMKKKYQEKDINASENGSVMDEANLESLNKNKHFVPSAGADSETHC

[3] = tested on: peripheral blood mononuclear cells (PBMC); assay: Anti-proliferative or immunosuppressive activity, BrdU incorporation in PHA-stimulated PBMC; assay type: cell-based; conditions: PHA 3 μg/ml, 60 hour compound treatment; read-out: EMV PBMC IC50
Experimental: Method 3: Measuring Anti-Proliferative or Immunosuppressive Activity
The potential anti-proliferative activity of compounds on T-cells was analyzed based on the amount of bromodesoxy uridine (BrdU) incorporated into DNA of fresh peripheral blood mononuclear cells (PBMC) using the BrdU ELISA kit (Roche). The assay is performed in 96-well plate format with 30,000 PBMCs seeded per well in X-VIVO 15 medium (Lonza). T-cell proliferation was stimulated by addition of 3 μg/ml phytohemagglutinin (PHA) in PBMCs obtained from two donors.

CypF = CypF (Homo sapiens (Human), UniProt P30405); assay: Inhibitor binding to cyclophilin proteins by SPR, CypF; conditions: 1:1 binding model
CypF, sequence (P30405 30-207): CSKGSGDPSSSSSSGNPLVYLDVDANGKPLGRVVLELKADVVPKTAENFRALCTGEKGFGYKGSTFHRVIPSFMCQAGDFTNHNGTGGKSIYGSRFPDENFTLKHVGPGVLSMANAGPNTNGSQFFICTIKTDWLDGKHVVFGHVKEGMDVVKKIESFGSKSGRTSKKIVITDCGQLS
Experimental: (§1) Method 1: Measuring Inhibitor Binding to Cyclophilin Proteins
(§2) Binding of inhibitors to expressed cyclophilins was determined using surface plasmon resonance (SPR) experiments. Briefly, avi-tagged cyclophilin proteins with mono-biotinylation were immobilized onto a Biotin CAPture chip (GE Healthcare, cat. #28920234). SPR experiments were carried out on an upgraded Biacore T200 system using a running buffer containing the inhibitor, 10 mM HEPES, pH 7.4, 150 mM NaCl, 0.05% P20, and 3% DMSO. Single-cycle kinetics measurements were used to study the interactions between cyclophilin inhibitors and different cyclophlins. Accordingly, compound at various concentrations was injected to the flow cells with a contact time of 1 min each at a flow rate of 50 μL/min. The final dissociation phase lasts for 10 min following the sample injection. Data was analyzed using Biacore T200 Evaluation Software Version 1.0 and a 1:1 binding model was applied to fit the data to obtain kon, koff, and KD.

cyclophilin B (CypB) = cyclophilin B (CypB) (Homo sapiens (Human), UniProt P23284); assay: Inhibitor binding to cyclophilin proteins by SPR, CypB; set-up: unit not given here; conditions: 1:1 binding model
cyclophilin B (CypB), sequence (P23284 34-216): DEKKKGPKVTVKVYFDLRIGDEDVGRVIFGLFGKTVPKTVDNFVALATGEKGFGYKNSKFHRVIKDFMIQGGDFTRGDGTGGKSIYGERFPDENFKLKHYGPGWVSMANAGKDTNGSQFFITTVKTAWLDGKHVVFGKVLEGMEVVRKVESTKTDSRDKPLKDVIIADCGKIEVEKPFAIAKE
Experimental: as §1, §2

cyclophilin A (CypA) = cyclophilin A (CypA) (Homo sapiens (Human), UniProt P62937); assay: Inhibitor binding to cyclophilin proteins by SPR, CypA; set-up: unit not given here; conditions: 1:1 binding model
cyclophilin A (CypA), sequence (P62937 whole entry): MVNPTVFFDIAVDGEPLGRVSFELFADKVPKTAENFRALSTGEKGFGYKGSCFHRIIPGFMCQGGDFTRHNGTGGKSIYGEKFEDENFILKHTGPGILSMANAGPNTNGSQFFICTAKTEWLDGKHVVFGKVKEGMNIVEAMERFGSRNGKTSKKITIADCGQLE

[4] = genotype 1b replicon, 72 h incubation

| Structure (SMILES) | IC50 [1, 4] [nM] | IC50 [2] [nM] | IC50 [3] [nM] | CypF Kd (CypF) [nM] | CypB Kd (cyclophilin B (CypB)) | CypA Kd (cyclophilin A (CypA)) | IC50 [1] [nM] |
| --- | --- | --- | --- | --- | --- | --- | --- |
| C/C=C/C[C@@H](C)[C@@H](O)[C@H]1C(=O)N[C@@H](CC)C(=O)N(C)[C@H](C)C(=O)N(C)[C@@H]([C@H](C)CCCN2CCN(CC)CC2)C(=O)N[C@@H](C(C)C)C(=O)N(C)[C@@H](CC(C)C)C(=O)N[C@@H](C)C(=O)N[C@H](C)C(=O)N(C)[C@@H](CC(C)C)C(=O)N(C)[C@@H](CC(C)C)C(=O)N(C)[C@@H](C(C)C)C(=O)N1C (stereo in doubt) [Compound 2.19.4, 3-[D-Ala]-4-[(2S,3R)-6-(4-ethylpiperazin-1-yl)-3-methyl-2-(methylamino)hexanoyl]-cyclosporin] | 60 | 2600 | 8800 | 0.4 | 0.4 | 0.6 | – |
| C/C=C/C[C@@H](C)[C@@H](O)[C@H]1C(=O)N[C@@H](CC)C(=O)N(C)[C@H](C)C(=O)N(C)[C@@H]([C@H](C)CCCN2CCC(OC)CC2)C(=O)N[C@@H](C(C)C)C(=O)N(C)[C@@H](CC(C)C)C(=O)N[C@@H](C)C(=O)N[C@H](C)C(=O)N(C)[C@@H](CC(C)C)C(=O)N(C)[C@@H](CC(C)C)C(=O)N(C)[C@@H](C(C)C)C(=O)N1C (stereo in doubt) [Compound 2.19.5, 3-[D-Ala]-4-[(2S,3R)-6-(4-methoxypiperidin-1-yl)-3-methyl-2-(methylamino)hexanoyl]-cyclosporin] | 80 | 4300 | 8900 | 0.4 | 0.5 | 0.7 | – |
| C/C=C/C[C@@H](C)[C@@H](O)[C@H]1C(=O)N[C@@H](CC)C(=O)N(C)[C@H](C(C)C)C(=O)N(C)C([C@H](C)COC)C(=O)N[C@@H](C(C)C)C(=O)N(C)[C@@H](CC(C)C)C(=O)N[C@@H](C)C(=O)N[C@H](C)C(=O)N(C)[C@@H](CC(C)C)C(=O)N(C)[C@@H](CC(C)C)C(=O)N(C)[C@@H](C(C)C)C(=O)N1C (stereo in doubt) [Compound 3.3, 3-[(R)-3-methyl-2-(methylamino)butanoyl]-4-[(2S,3S)-4-methoxy-3-methyl-2-(methylamino)butanoyl]-cyclosporin] | – | 2000 | 13200 | 8.2 | 7.4 | 13.7 | 100 |
| C/C=C/C[C@@H](C)[C@@H](O)[C@H]1C(=O)N[C@@H](CC)C(=O)N(C)[C@H](CCCO)C(=O)N(C)[C@@H]([C@H](C)CS(C)(=O)=O)C(=O)N[C@@H](C(C)C)C(=O)N(C)[C@@H](CC(C)C)C(=O)N[C@@H](C)C(=O)N[C@H](C)C(=O)N(C)[C@@H](CC(C)C)C(=O)N(C)[C@@H](CC(C)C)C(=O)N(C)[C@@H](C(C)C)C(=O)N1C (stereo in doubt) [Compound 3.4.1, 3-[(R)-5-hydroxy-2-(methylamino)pentanoyl]-4-[(2S,3S)-3-methyl-2-(methylamino)-4-(methylsulfonyl)butanoyl]-cyclosporin] | 4500 | 2700 | 5800 | 3.8 | 2.8 | 7.0 | – |
| C/C=C/C[C@@H](C)[C@@H](O)[C@H]1C(=O)N[C@@H](CC)C(=O)N(C)[C@H](C)C(=O)N(C)[C@@H]([C@H](C)CN2CC3CCC(C2)O3)C(=O)N[C@@H](C(C)C)C(=O)N(C)[C@@H](CC(C)C)C(=O)N[C@@H](C)C(=O)N[C@H](C)C(=O)N(C)[C@@H](CC(C)C)C(=O)N(C)[C@@H](CC(C)C)C(=O)N(C)[C@@H](C(C)C)C(=O)N1C [Compound 2.5.3, 3-[D-Ala]-4-[(2S,3R)-4-(8-oxa-3-azabicyclo[3.2.1]octan-3-yl)-3-methyl-2-(methylamino)butanoyl]-cyclosporin] (cyclo([MeBmt][Abu][dNMeA][X46]V[NMeL]A[dA][NMeL][NMeL][NMeV])) | – | 1700 | 5800 | 1.4 | 1.8 | 2.4 | 42 |
| C/C=C/C[C@@H](C)[C@@H](O)[C@H]1C(=O)N[C@@H](CC)C(=O)N(C)[C@H](C)C(=O)N(C)[C@@H]([C@H](C)CN2C[C@H](C)OC[C@@H]2C)C(=O)N[C@@H](C(C)C)C(=O)N(C)[C@@H](CC(C)C)C(=O)N[C@@H](C)C(=O)N[C@H](C)C(=O)N(C)[C@@H](CC(C)C)C(=O)N(C)[C@@H](CC(C)C)C(=O)N(C)[C@@H](C(C)C)C(=O)N1C [Compound 2.5.6, 3-[D-Ala]-4-[(2S,3R)-4-((2S,5S)-2,5-dimethylmorpholino)-3-methyl-2-(methylamino)butanoyl]-cyclosporin] (cyclo(A[dA][NMeL][NMeL][NMeV][MeBmt][Abu][dNMeA][X31]V[NMeL])) | 35 | 2600 | 3400 | 2.5 | 2.7 | 5.0 | – |
| C/C=C/C[C@@H](C)[C@@H](O)[C@H]1C(=O)N[C@@H](CC)C(=O)N(C)[C@H](C)C(=O)N(C)[C@@H]([C@H](C)COCCN2CCOC[C@@H]2C)C(=O)N[C@@H](C(C)C)C(=O)N(C)[C@@H](CC(C)C)C(=O)N[C@@H](C)C(=O)N[C@H](C)C(=O)N(C)[C@@H](CC(C)C)C(=O)N(C)[C@@H](CC(C)C)C(=O)N(C)[C@@H](C(C)C)C(=O)N1C [Compound 2.8.6, 3-[D-Ala]-4-[(2S,3S)-3-methyl-2-(methylamino)-4-(2-((S)-3-methylmorpholino)ethoxy)butanoyl]-cyclosporin] (cyclo(A[dA][NMeL][NMeL][NMeV][MeBmt][Abu][dNMeA][X82]V[NMeL])) | 13 | 4800 | – | 0.8 | 0.9 | 1.3 | – |
| C/C=C/C[C@@H](C)[C@@H](O)[C@H]1C(=O)N[C@@H](CC)C(=O)N(C)[C@H](C)C(=O)N(C)[C@@H]([C@H](C)CCCOC(=O)N(C)C2CCN(C)CC2)C(=O)N[C@@H](C(C)C)C(=O)N(C)[C@@H](CC(C)C)C(=O)N[C@@H](C)C(=O)N[C@H](C)C(=O)N(C)[C@@H](CC(C)C)C(=O)N(C)[C@@H](CC(C)C)C(=O)N(C)[C@@H](C(C)C)C(=O)N1C [Compound 2.19.9, 3-[D-Ala]-4-[(2S,3R)-3-methyl-6-((methyl(1-methylpiperidin-4-yl)carbamoyl)oxy)-2-(methylamino)hexanoyl]-cyclosporin] (cyclo(A[dA][NMeL][NMeL][NMeV][MeBmt][Abu][dNMeA][X42]V[NMeL])) | – | 3700 | – | 0.4 | 0.4 | 0.8 | – |
| C/C=C/C[C@@H](C)[C@@H](O)[C@H]1C(=O)N[C@@H](CC)C(=O)N(C)[C@H](CC)C(=O)N(C)[C@@H]([C@H](C)COC)C(=O)N[C@@H](C(C)C)C(=O)N(C)[C@@H](CC(C)C)C(=O)N[C@@H](C)C(=O)N[C@H](C)C(=O)N(C)[C@@H](CC(C)C)C(=O)N(C)[C@@H](CC(C)C)C(=O)N(C)[C@@H](C(C)C)C(=O)N1C [Compound 3.1, 3-[(R)-2-(methylamino)butanoic acid]-4-[(2S,3S)-4-methoxy-3-methyl-2-(methylamino)butanoyl]-cyclosporin] | – | 2100 | – | 1.9 | 1.6 | 3.4 | – |
